Experimental data reported in patent US10259827B2, “BMP potentiators” (NOVARTIS AG, priority 2016, dated 2019).

Legend:
[1] = system: C2C12-IDBRE-luciferase cells; assay: BMP activity, C2C12-IDBRE-luciferase reporter assay; format: cell-based; conditions: 24 hours after treatment, 100% activity = luminescence 200% of DMSO control, read-out: Qualified absolute AC50
Protocol: C2C12-IDBRE-luciferase reporter line was established by infecting C2C12 cells with lentiviruses with IDBRE-luciferase pLenti6 plasmid with Blasticidin resistance.
C2C12-IDBRE-luciferase cells were plated to 384-well plate at 5000 cells in 36 μl DMEM plus 10% FBS at day 0. Cells were treated with different doses of compounds at day 1. Bright-Glo™ Luciferase Assay (Promega, catalog # E2650) was performed with EnVision plate reader (PerkinElmer) 24 hours after treatment at day 2. 0% activity is equal to DMSO control. 100% activity means Luminescence reading for a compound is 200% of luminescence reading of DMSO control. The formula to calculate the activity is: 100*(Luminescence_compound−Luminescence_DMSO)/Luminescence_DMSO

[2] = system: 293T-NFAT-luciferase cells; assay: Calcineurin inhibition, 293T-NFAT-luciferase reporter assay; format: cell-based; conditions: 293T-NFAT-luciferase cells co-treated with 100 ng/ml PMA and 1 μM Ionomycin, 24 hours after treatment; read-out: NFAT-luc IC50
Protocol: NFAT-luciferase reporter line was established by transfecting NFAT-luciferase/pTranslucent (Panomics #LR0050) and Puromycin-resistance plasmid together into 293T cells.
293T-NFAT-luciferase cells were plated to 384-well plate at 10000 cells in 32 μl DMEM plus 10% FBS at day 0. Cells were treated with different doses of compounds at day 1. Half an hour after compound treatment, 293T-NFAT-luciferase cells were co-treated with 100 ng/ml PMA (PHORBOL 12-MYRISTATE 13-ACETAT, Sigma, catalog #P8139-1MG) and 1 μM Ionomycin (Sigma, catalog #10634-1MG). Bright-Glo™ Luciferase Assay (Promega, catalog # E2650) was performed with EnVision plate reader (PerkinElmer) 24 hours after treatment at day 2.

Row | Compound | AC50 [1] [nM] | IC50 [2] [nM]
1 | CO[C@H]1C[C@@H](C)C/C(C)=C/[C@@H](C/C=C/C2(O)COC2)C(=O)C[C@H](O)[C@@H](C)[C@@H](/C(C)=C/[C@@H]2CC[C@@H](O)[C@H](OC)C2)OC(=O)[C@@H]2CCCCN2C(=O)C(=O)[C@]2(O)O[C@H]1[C@@H](OC)C[C@H]2C [Compound A] | 91 | > 50000
2 | C=CC[C@@H]1/C=C(\C)C[C@H](C)C[C@H](OC)[C@H]2O[C@@](O)(C(=O)C(=O)N3CCCC[C@H]3C(=O)O[C@H](/C(C)=C/[C@@H]3CC[C@@H](O)[C@H](OC)C3)[C@H](C)[C@@H](O)CC1=O)[C@H](C)C[C@@H]2OC [FK-506, reference compound] | 24 | 0.05
3 | CC[C@H]1C(=O)C[C@H](O)[C@@H](C)[C@@H](/C(C)=C/[C@@H]2CC[C@@H](O)[C@H](OC)C2)OC(=O)[C@@H]2CCCCN2C(=O)C(=O)[C@]2(O)O[C@H]([C@@H](OC)C[C@@H](C)C[C@]3(C)O[C@@H]13)[C@@H](OC)C[C@H]2C [Compound C] | 201 | 33
4 | CC[C@H]1C(=O)C[C@H](O)[C@@H](C)[C@@H](/C(C)=C/[C@@H]2CC[C@@H](O)[C@H](OC)C2)OC(=O)[C@@H]2CCCCN2C(=O)C(=O)[C@]2(O)O[C@H]([C@@H](OC)C[C@@H](C)C[C@@]3(C)O[C@H]13)[C@@H](OC)C[C@H]2C [Compound B] | 24 | > 50000
